Reference: US20160193299A1, “MODIFIED NUCLEOSIDE, NUCLEOTIDE, AND NUCLEIC ACID COMPOSITIONS” (Moderna Therapeutics, Inc., priority 2011, published 2016)

Columns and labels:
[1] = tested on: HeLa cells; test: Chemical modifications on luciferase mRNA, HeLa transfection (RLU); type: cell-based; conditions: 83 ng luciferase mRNA, 18 to 22 hours
Description: The day before transfection, 20,000 HeLa cells (ATCC no. CCL-2; Manassas, Va.) were harvested by treatment with Trypsin-EDTA solution (Life Technologies, Grand Island, N.Y.) and seeded in a total volume of 100 ul EMEM medium (supplemented with 10% FCS and 1× Glutamax) per well in a 96-well cell culture plate (Corning, Manassas, Va.). The cells were grown at 37° C. in 5% CO2 atmosphere overnight. […] Lipofectamine 2000 (LifeTechnologies, Grand Island, N.Y.) was used as transfection reagent and 0.2 ul were diluted in 10 ul final volume of OPTI-MEM. After 5 minutes of incubation at room temperature, both solutions were combined and incubated an additional 15 minute at room temperature. Then the 20 ul combined solution was added to the 100 ul cell culture medium containing the HeLa cells and incubated at room temperature.
After 18 to 22 hours of incubation cells expressing luciferase were lysed with 100 ul of Passive Lysis Buffer (Promega, Madison, Wis.) according to manufacturer instructions. Aliquots of the lysates were transferred to white opaque polystyrene 96-well plates (Corning, Manassas, Va.) and combined with 100 ul complete luciferase assay solution (Promega, Madison, Wis.). […] The plate reader was a BioTek Synergy H1 (BioTek, Winooski, Vt.). The background signal of the plates without reagent was about 200 relative light units per well.

[2] = tested on: Balb-C mice; test: Lipoplex study, whole-body flux (Table 129); type: in vivo, mouse; conditions: lipoplexed luciferase mRNA, 0.10 mg/kg
Description: (§1) The formulation was administered intravenously (I.V.), intramuscularly (I.M.) or subcutaneously (S.C.) to Balb-C mice at a dose of 0.10 mg/kg.
(§2) Twenty minutes prior to imaging, mice were injected intraperitoneally with a D-luciferin solution at 150 mg/kg. Animals were then anesthetized and images were acquired with an IVIS Lumina II imaging system (Perkin Elmer). Bioluminescence was measured as total flux (photons/second) of the entire mouse. The mice were imaged at 8 hours, 24 hours and 48 hours after dosing and the average total flux (photons/second) was measured for each route of administration and chemical modification. The background signal was about 3.91E+05 p/s. Organs were imaged at 6 hours and the average total flux (photons/second) was measured for the liver, spleen, lung and kidney. A control for each organ was also analyzed.

[3] = tested on: liver, spleen, lung and kidney; test: Lipoplex study, organ flux at 6 hours (Table 130); type: in vivo, mouse; conditions: lipoplexed luciferase mRNA, 0.10 mg/kg
Description: as §1, §2

[4] = tested on: Balb-C mice; test: Intramuscular and subcutaneous administration of modified luciferase mRNA in PBS (whole-body flux); type: in vivo, mouse
Description: The mice were imaged at 2 hours, 8 hours, 24 hours, 48 hours, 72 hours, 96 hours, 120 hours and 144 hours for intramuscular delivery and 2 hours, 8 hours, 24 hours, 48 hours, 72 hours, 96 hours and 120 hours for subcutaneous delivery. Twenty minutes prior to imaging, mice were injected intraperitoneally with a D-luciferin solution at 150 mg/kg. Animals were then anesthetized and images were acquired with an IVIS Lumina II imaging system (Perkin Elmer). Bioluminescence was measured as total flux (photons/second) of the entire mouse. The average total flux (photons/second) for intramuscular administration is shown in Table 113 and the average total flux (photons/second) for subcutaneous administration is shown in Table 114. The background signal was 3.79E+05 (p/s). The peak expression for intramuscular administration was seen between 24 and 48 hours for all chemistry and expression was still detected at 144 hours.

[5] = tested on: human EPO; test: Example 48 split dose study IM, serum human EPO, product per unit drug and dose splitting factor; type: in vivo, mice; conditions: for Avg. pmol/mL human EPO: serum 13 h
Description: The dosing vehicle (F. buffer) consisted of 150 mM NaCl, 2 mM CaCl2, 2 mM Nat phosphate (1.4 mM monobasic sodium phosphate; 0.6 mM dibasic sodium phosphate), and 0.5 mM EDTA, pH 6.5. The pH was adjusted using sodium hydroxide and the final solution was filter sterilized.
Animals (n=5) were injected IM (intramuscular) for the single unit dose of 100 ug. For multi-dosing, two schedules were used, 3 doses of 100 ug and 6 doses of 100 ug. For the split dosing scheme, two schedules were used, 3 doses at 33.3 ug and 6 doses of 16.5 ug mmRNA. Control dosing involved use of buffer only at 6 doses. […] Blood and muscle tissue were evaluated 13 hrs post injection.
Human EPO protein was measured in mouse serum 13 h post I.M. single, multi- or split dosing of the EPO mmRNA in buffer. Seven groups of mice (n=5 mice per group) were treated and evaluated.
The splitting factor is defined as the product per unit drug divided by the single dose product per unit drug (PUD). For example for treatment group 2 the value 0.28 or product (EPO) per unit drug (mmRNA) is divided by the single dose product per unit drug of 0.14. The result is 2. Likewise, for treatment group 4, the value 1.1 or product (EPO) per unit drug (mmRNA) is divided by the single dose product per unit drug of 0.14. The result is 7.9. Consequently, the dose splitting factor (DSF) may be used as an indicator of the efficacy of a split dose regimen. For any single administration of a total daily dose, the DSF should be equal to 1. Therefore any DSF greater than this value in a split dose regimen is an indication of increased efficacy.

[6] = tested on: human EPO; test: Example 43 multi-dose/multi-administration IM, serum human EPO; type: in vivo, Sprague-Dawley rats; conditions: rat serum 13 h post I.M.
Description: The dosing vehicle (F. buffer) was used as a control.
Animals (n=5), Sprague-Dawley rats, were injected IM (intramuscular) for the single unit dose of 100 ug (delivered to one thigh). For multi-dosing 6 doses of 100 ug (delivered to two thighs) were used for both EPO and G-CSF mmRNA. Control dosing involved use of buffer at a single dose. Human EPO blood levels were evaluated 13 hrs post injection.
Human EPO protein was measured in rat serum 13 h post I.M. Five groups of rats were treated and evaluated.

Unmodified Luciferase: unmodified luciferase mRNA SEQ ID NO: 16, polyA about 140, Cap1
RLU [1]: 33980 RLU

5mC/pU: Luciferase mRNA SEQ ID NO: 16, polyA about 140, fully modified with 5-methylcytosine and pseudouridine
RLU [1]: 1601234 RLU
Flux ([2]; I.M., 8 hrs): 1.90E+06 p/s
Flux ([2]; I.M., 24 hrs): 9.33E+05 p/s
Flux ([2]; I.M., 48 hrs): 8.51E+05 p/s
Flux ([2]; I.V., 8 hrs, background about 3.91E+05 p/s): 5.76E+06 p/s
Flux ([2]; I.V., 24 hrs): 1.02E+06 p/s
Flux ([2]; I.V., 48 hrs): 4.53E+05 p/s
Flux ([2]; S.C., 8 hrs): 2.85E+06 p/s
Flux ([2]; S.C., 24 hrs): 6.66E+05 p/s
Flux ([2]; S.C., 48 hrs): 3.24E+05 p/s
Inj. Site Flux ([3]; I.M.): 1.15E+06 p/s
Kidney Flux ([3]; I.M.): 1.44E+04 p/s
Liver Flux ([3]; I.M.): 2.46E+04 p/s
Lung Flux ([3]; I.M.): 1.50E+04 p/s
Spleen Flux ([3]; I.M.): 1.38E+04 p/s
Kidney Flux ([3]; I.V.): 1.77E+04 p/s
Liver Flux ([3]; I.V.): 5.26E+05 p/s
Lung Flux ([3]; I.V.): 4.28E+06 p/s
Spleen Flux ([3]; I.V.): 2.04E+07 p/s
Inj. Site Flux ([3]; S.C.): 4.46E+04 p/s
Kidney Flux ([3]; S.C.): 1.69E+04 p/s
Liver Flux ([3]; S.C.): 1.55E+04 p/s
Lung Flux ([3]; S.C.): 1.45E+04 p/s
Spleen Flux ([3]; S.C.): 1.67E+04 p/s
Flux ([4]; Balb-C mice, intramuscular 2.5 mg/kg in PBS, 2 hours): 1.98E+07 p/s
Flux ([4]; Balb-C mice, subcutaneous 2.5 mg/kg in PBS, 2 hours): 5.26E+06 p/s
Flux ([4]; intramuscular 2.5 mg/kg, 8 hours): 1.42E+07 p/s
Flux ([4]; intramuscular 2.5 mg/kg, 24 hours): 2.92E+07 p/s
Flux ([4]; intramuscular 2.5 mg/kg, 48 hours): 2.64E+07 p/s
Flux ([4]; intramuscular 2.5 mg/kg, 72 hours): 2.18E+07 p/s
Flux ([4]; intramuscular 2.5 mg/kg, 96 hours): 2.75E+07 p/s
Flux ([4]; intramuscular 2.5 mg/kg, 120 hours): 2.19E+07 p/s
Flux ([4]; intramuscular 2.5 mg/kg, 144 hours): 9.17E+06 p/s
Flux ([4]; subcutaneous 2.5 mg/kg, 8 hours): 2.32E+06 p/s
Flux ([4]; subcutaneous 2.5 mg/kg, 24 hours): 2.67E+06 p/s
Flux ([4]; subcutaneous 2.5 mg/kg, 48 hours): 1.22E+06 p/s
Flux ([4]; subcutaneous 2.5 mg/kg, 72 hours): 1.12E+06 p/s
Flux ([4]; subcutaneous 2.5 mg/kg, 96 hours): 5.16E+05 p/s
Flux ([4]; subcutaneous 2.5 mg/kg, 120 hours): 3.80E+05 p/s

B1: Human EPO mmRNA (nucleic acid, listed as Homo sapiens)
sense: GGGAAAUAAGAGAGAAAAGAAGAGUAAGAAGAAAUAUAAGAGCCACCAUGGGAGUGCACGAGUGUCCCGCGUGGUUGUGGUUGCUGCUGUCGCUCUUGAGCCUCCCACUGGGACUGCCUGUGCUGGGGGCACCACCCAGAUUGAUCUGCGACUCACGGGUACUUGAGAGGUACCUUCUUGAAGCCAAAGAAGCCGAAAACAUCACAACCGGAUGCGCCGAGCACUGCUCCCUCAAUGAGAACAUUACUGUACCGGAUACAAAGGUCAAUUUCUAUGCAUGGAAGAGAAUGGAAGUAGGACAGCAGGCCGUCGAAGUGUGGCAGGGGCUCGCGCUUUUGUCGGAGGCGGUGUUGCGGGGUCAGGCCCUCCUCGUCAACUCAUCACAGCCGUGGGAGCCCCUCCAACUUCAUGUCGAUAAAGCGGUGUCGGGGCUCCGCAGCUUGACGACGUUGCUUCGGGCUCUGGGCGCACAAAAGGAGGCUAUUUCGCCGCCUGACGCGGCCUCCGCGGCACCCCUCCGAACGAUCACCGCGGACACGUUUAGGAAGCUUUUUAGAGUGUACAGCAAUUUCCUCCGCGGAAAGCUGAAAUUGUAUACUGGUGAAGCGUGUAGGACAGGGGAUCGCUGAUAAGCUGCCUUCUGCGGGGCUUGCCUUCUGGCCAUGCCCUUCUUCUCUCCCUUGCACCUGUACCUCUUGGUCUUUGAAUAAAGCCUGAGUAGGAAG
modifications: 5' Cap1, polyA tail ~160 nt
Dose Splitting Factor ([5]; 1 × 100 ug, total 100 ug): 1
Polypeptide per unit drug ([5]; 1 × 100 ug, total 100 ug): 0.14 pmol/µg
Avg. pmol/mL human EPO ([5]; 1 × 100 ug, total 100 ug): 14.3 pmol/mL
Dose Splitting Factor ([5]; 3 × 33.3 ug, total 100 ug): 7.9
Polypeptide per unit drug ([5]; 3 × 33.3 ug, total 100 ug): 1.1 pmol/µg
Avg. pmol/mL human EPO ([5]; 3 × 33.3 ug, total 100 ug): 104.7 pmol/mL
Dose Splitting Factor ([5]; 3 × 100 ug, total 300 ug): 2
Polypeptide per unit drug ([5]; 3 × 100 ug, total 300 ug): 0.28 pmol/µg
Avg. pmol/mL human EPO ([5]; 3 × 100 ug, total 300 ug): 82.5 pmol/mL
Dose Splitting Factor ([5]; 6 × 16.5 ug, total 100 ug): 9.3
Polypeptide per unit drug ([5]; 6 × 16.5 ug, total 100 ug): 1.3 pmol/µg
Avg. pmol/mL human EPO ([5]; 6 × 16.5 ug, total 100 ug): 127.9 pmol/mL
Dose Splitting Factor ([5]; 6 × 100 ug, total 600 ug): 3.3
Polypeptide per unit drug ([5]; 6 × 100 ug, total 600 ug): 0.46 pmol/µg
Avg. pmol/mL human EPO ([5]; 6 × 100 ug, total 600 ug): 273.0 pmol/mL
Avg. human EPO ([6]; 1 × 100 ug, total dose 100 ug): 143 pg/mL
Avg. human EPO ([6]; 6 × 100 ug, total dose 600 ug): 256 pg/mL
